Measurements: US20120213789A1, “New Molecular Target for Treatment of Cancer” (priority 2001, published 2012)

Tests used:
[1] = Percent viability by Trypan blue dye exclusion after SPB treatment; format: cell-based; conditions: prostate cell lines, treated cells, SPB 0.5-25.0 mM, untreated cells about 85%
Protocol: (§1) Cells were grown to 70-80% confluence at 37° C. and 5% CO2 in T-75 tissue culture plastic flasks. SPB stock solution was added to final concentrations of 0.5, 5.0, 10.0, and 25.0 mM in appropriate fresh media to the cell cultures. Cells were incubated at 37° C. and 5% CO2 for 72 hours. Attached cells were then harvested using a solution of 0.05% trypsin and 0.53 mM EDTA (Invitrogen Corp.). Attached cells were then pooled with any the detached cells and washed with PBS pH 7.2. Cell numbers and percent viability were determined using Trypan blue dye exclusion and a hemacytometer. At the time of their use in an experiment the viability was usually about 85% for untreated cells and a range of about 15-70% for treated cells, with the lower viabilities found at higher SPB concentrations (Thompson C, 1995; Cory et al., 1998; van Engeland et al., 1996).

[2] = test system: ML-SV40 Prostat Cell Line; test: Dual label UC28 C/AnnexinV flow cytometry after SPB treatment; format: cell-based; conditions: for Total AnnexV / Total UC28C: 72 hours, ML-SV40, UC28-GAR-CY5/AnnexV-FITC
Protocol: as §1
VO1 Apoptosis Detection Kit contains: (1) Fluorocein-isothiocyante (FITC) conjugated AnnexinV [AnnexinV01] 1 ml (2) Propidium Iodide [Annex-Pi] 2.0 ml (3) 4× Binding Buffer [Annex-B] 20.0 ml. Vendor is CalTag Laboratories, Inc., 1849 Bayshore Boulevard #200 Burlingame, Calif. 94010.
UC28(C) is 2.14 mg/ml rabbit polyclonal aliquot directed against the inventors' UC28 patented biomarker developed by UCor R&D gene discovery program. The Antibody was produced against a twenty amino acid (AA) synthetic peptide from the predicted AA sequence (AA 21-37) UCor, Inc. 840 Research Parkway Oklahoma City, Okla. 73104.
Goat Anti-Rabbit CY5 polyclonal Fluorchrome was used as the secondary conjugate for UC28 C rabbit polyclonal antibody and a background control for UC28 C polyclonal. Vendor is Jackson ImmunoResearch Laboratories, Inc. 872 West Baltimore Pike, P.O. Box 9 West Grove, Pa. 19390.
MsIgG-FITC mouse conjugated-FITC was used for background control for AnnexinV01. Vendor is Becicman Coulter, Inc. Diagnostic Division, 11800 SW 147th Ave. M/S 42-003, P.O. Box 169015, Miami, Floridia 33116-9015.
A Coulter Elite engineered with a triple laser system was used to analyze all samples. Coulter control beads were used to align lasers for the dual label testing of cell samples. Laser alignment was required for both the Argon (488 nm line) laser and HeNe (633 nm line) laser. These alignments were performed prior to all measurements with the Argon laser (488 nm line) using fluorophores for FITC, RPE, PI and the HeNe laser (633 nm line) for the Cy5 fluorophores being used for the experiments described below. The histographs, voltage settings, gates, color compensation, and pressures were established prior to all sample processing. […]
UC28 and Annexin V were co-labeled in the three cell lines to assess the induction of UC28 by SPB and its correlation to the induction of apoptosis. […] It may be noted that in previously published experiments, AnnexinV and PI were run in combination with several prostate cancer cell lines, one of which was LNCaP, but not with C4-2B or MLC-SV40. It was determined that they produced similar dose-response kinetics when exposed to 0.5-25 mM of SPB for 72 hours (Ng et al., 1989). That is, as the dose of SPB increased, so did the membrane perturbation events measured by these two methods.

[3] = test system: LNCaP cell line; test: Dose-response kinetics of UC28 protein expression by flow cytometry; format: cell-based, human
Protocol: (§2) Cells were grown to 70-80% confluence at 37° C. and 5% CO2 in T-75 tissue culture plastic flasks. SPB stock solution was added to final concentrations of 0.5, 5.0, 10.0, and 25.0 mM in appropriate fresh media to the cell cultures. Cells were incubated at 37° C. and 5% CO2 for 72 hours. Attached cells were then harvested using a solution of 0.05% trypsin and 0.53 mM EDTA (Invitrogen Corp.). Attached cells were then pooled with any the detached cells and washed with PBS pH 7.2. Cell numbers and percent viability were determined using Trypan blue dye exclusion and a hemacytometer. At the time of their use in an experiment the viability was usually about 85% for untreated cells and a range of about 15-70% for treated cells, with the lower viabilities found at higher SPB concentrations (Thompson C, 1995; Cory et al., 1998; van Engeland et al., 1996). UC28(C) is 2.14 mg/ml rabbit polyclonal aliquot directed against the inventors' UC28 patented biomarker developed by UCor R&D gene discovery program. The Antibody was produced against a twenty amino acid (AA) synthetic peptide from the predicted AA sequence (AA 21-37) UCor, Inc. 840 Research Parkway Oklahoma City, Okla. 73104. Goat Anti-Rabbit CY5 polyclonal Fluorchrome was used as the secondary conjugate for UC28 C rabbit polyclonal antibody and a background control for UC28 C polyclonal. Vendor is Jackson ImmunoResearch Laboratories, Inc. 872 West Baltimore Pike, P.O. Box 9 West Grove, Pa. 19390. A Coulter Elite engineered with a triple laser system was used to analyze all samples. Coulter control beads were used to align lasers for the dual label testing of cell samples. Laser alignment was required for both the Argon (488 nm line) laser and HeNe (633 nm line) laser. These alignments were performed prior to all measurements with the Argon laser (488 nm line) using fluorophores for FITC, RPE, PI and the HeNe laser (633 nm line) for the Cy5 fluorophores being used for the experiments described below. The histographs, voltage settings, gates, color compensation, and pressures were established prior to all sample processing. […] The data confirms the biological differences in these three cell lines and provides a stronger basis upon which to assess the behavior of the UC28 gene under the same SPB treatment conditions. For both of these experiments, supernatants were collected from the same experiments as in Example 1; cells were collected and assayed for apoptosis as well as for UC28 antigen expression using antibodies to SEQ ID NO:4.

[4] = test system: C4-2B cell line; test: as above; format: cell-based, human
Protocol: as §2

[5] = SPB, MLC-SV40, summary of Table 5

**Q.** With O=C([O-])CCCc1ccccc1.[Na+] [SPB, 4-Phenylbutyric Acid, Sodium Salt] as the compound, how does the viability at 72 h [1] read?
**A.** Its viability at 72 h is 15 to 70%.

**Q.** And the “Total AnnexV” value ([2]; 0.5 mM SPB)?
**A.** The value was 11.4%.

**Q.** What about the “Total UC28C” value ([2]; 0.5 mM SPB) of the same compound?
**A.** The value was 8.6%.

**Q.** What about the “Total AnnexV” value ([2]; 5.0 mM SPB) of the same compound?
**A.** Its value is 90.2%.

**Q.** What about the “Total UC28C” value ([2]; 5.0 mM SPB) of the same compound?
**A.** The value was 6.8%.

**Q.** And the “Total AnnexV” value ([2]; 10 mM SPB)?
**A.** Its value is 95.7%.

**Q.** What about the “Total UC28C” value ([2]; 10 mM SPB) of the same compound?
**A.** The value was 6.8%.

**Q.** And the “Total AnnexV” value ([2]; 25 mM SPB)?
**A.** Its value is 90.7%.

**Q.** What about the “Total UC28C” value ([2]; 25 mM SPB) of the same compound?
**A.** The value was 9.3%.

**Q.** What about the UC28 up regulation [2, 5] of the same compound?
**A.** The UC28 up regulation was “not”.

**Q.** And the induction of apoptosis [2, 5]?
**A.** Its induction of apoptosis is “induced”.

**Q.** What about the “UC28 membrane protein expression” value ([3]; 0.5 to 25 mM SPB, LNCaP) of the same compound?
**A.** The value was “dramatically over expressing”.

**Q.** What about the URCO28 expression ([3]; LNCap treated with SPB) of the same compound?
**A.** Its URCO28 expression is “remained elevated”.

**Q.** And the “UC28 membrane protein expression” value ([4]; 0.5 to 25 mM SPB, C4-2B)?
**A.** Its value is “dramatically over expressing”.

**Q.** What about the URCO28 expression ([4]; C4-2B treated with SPB) of the same compound?
**A.** Its URCO28 expression is “remained elevated”.
